Drawing on patent US20250145665A1, “MACROCYCLIC PEPTIDES USEFUL AS MODULATORS OF TNF ALPHA” (Bristol-Myers Squibb Company, priority 2023, published 2025), this text covers IC50 for eleven compounds.

pIC50: −log10 of the molar value. Starred links: 1 amine or outer side, 2 acyl side, 3 side chain; linkers in the order of their positions; H or OH if unused. Positions of bridges follow the written chain, without caps; N, C: chain ends. Non-standard residues stand in square brackets, D forms with d. Residues, ends and D or L forms follow the SMILES beside them. *: point of attachment. X84 = O=C(Oc1cccc(-c2ccc(C[C@H](N[*:1])C(=O)[*:2])cc2)c1)c1csc(-c2ccncc2)n1; X5 = Cn1nc(C(=O)Nc2ccc(-c3ccc(C[C@H](N[*:1])C(=O)[*:2])cc3)cc2)c2ccccc21; Bip(4'-NH) = O=C([C@H](Cc1ccc(-c2ccc(N[*:3])cc2)cc1)N[*:1])[*:2]; Bip(4'-CONHMe) = CNC(=O)c1ccc(-c2ccc(C[C@H](N)C(=O)O)cc2)cc1; Indazole3carbonyl(1-CH2COOH) = O=C(O)Cn1nc(C(=O)*)c2ccccc21; Bip(4'-COOH) = N[C@@H](Cc1ccc(-c2ccc(C(=O)O)cc2)cc1)C(=O)O; Ala(morpholin-4-yl) = N[C@@H](CN1CCOCC1)C(=O)O; Phe(3-CONH2) = NC(=O)c1cccc(C[C@H](N)C(=O)O)c1; Bip = N[C@@H](Cc1ccc(-c2ccccc2)cc1)C(=O)O; 2Pal = N[C@@H](Cc1ccccn1)C(=O)O; Tic = O=C(O)[C@@H]1Cc2ccccc2CN1; Cha = N[C@@H](CC1CCCCC1)C(=O)O; Tle = CC(C)(C)[C@H](N)C(=O)O; Aze = O=C(O)[C@@H]1CCN1; Sar = CNCC(=O)O Bounds are passed on as bounds.

In the first experiment the target is TNFα (Homo sapiens, UniProt P01375). The experiment in a line: TNF-Induced HEK-Blue Assay.
Chain of TNFα (P01375 77-233 limits assumed): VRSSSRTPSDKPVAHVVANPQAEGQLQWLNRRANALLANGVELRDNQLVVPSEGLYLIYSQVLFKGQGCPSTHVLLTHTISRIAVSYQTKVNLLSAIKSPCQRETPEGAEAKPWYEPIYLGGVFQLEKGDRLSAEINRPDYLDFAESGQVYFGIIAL
Conditions: not given
In kind it is cell-based.
A word on the pIC50: it is −log10 of the IC50, conventionally taken in molar units. As to `CC(C)C[C@@H]1NC(=O)[C@H](CCCNC(=N)N)NC(=O)[C@H](C(C)C)NC(=O)[C@@H]2CCCN2C(=O)[C@H](C(C)C)NC(=O)[C@@H](CCCNC(=N)N)NC(=O)[C@H](CC(=O)O)NC(=O)[C@@H]2CCCN2C(=O)CN(C)C(=O)[C@H](Cc2ccc(-c3ccc(NC(=O)c4nn(CC(=O)O)c5ccccc45)cc3)cc2)NC(=O)[C@H](Cc2ccc(-c3ccccc3)cc2)NC(=O)[C@H](CN2CCOCC2)NC(=O)CSC[C@@H](C(=O)NCC(N)=O)NC1=O` [Example 333] ({CH2CO}-[Ala(morpholin-4-yl)][Bip][Bip(4'-NH)](Indazole3carbonyl(1-CH2COOH))[Sar]PD[dR]VPVRLCG-NH2; thioether N-13), the pIC50 was more than 7.30.

The same experiment, now with this note: HEK-Blue-CD40L cells, NF-kB-driven secreted alkaline phosphatase reporter; TNFα 0.5 ng/ml; 18 h; read-out: TNF induced HEK-Blue assay IC50 value.
Turning to `CC[C@H](C)[C@@H]1NC(=O)[C@@H](CCCNC(=N)N)NC(=O)[C@H](CC(=O)O)NC(=O)[C@H](Cc2cnc[nH]2)NC(=O)CN(C)C(=O)[C@H](Cc2ccc(-c3ccc(C(=O)NC)cc3)cc2)NC(=O)[C@H](Cc2ccc(-c3ccc(C(=O)O)cc3)cc2)NC(=O)[C@H](CC2CCCCC2)NC(=O)CSC[C@@H](C(=O)NCC(N)=O)NC(=O)[C@H](CC(C)C)NC(=O)[C@H](Cc2cnc[nH]2)NC(=O)[C@H](C(C)C)NC(=O)[C@@H]2CCCN2C1=O` [Example 331] ({CH2CO}-[Cha][Bip(4'-COOH)][Bip(4'-CONHMe)][Sar]HD[dR]IPVHLCG-NH2; thioether N-13), the pIC50 was more than 7.30.
`CC(C)C[C@@H]1NC(=O)[C@H](CCCNC(=N)N)NC(=O)[C@H](C(C)C)NC(=O)[C@@H]2CCCN2C(=O)[C@H](C(C)C)NC(=O)[C@@H](CCCNC(=N)N)NC(=O)[C@H](CC(=O)O)NC(=O)[C@@H]2CCCN2C(=O)CN(C)C(=O)[C@H](Cc2ccc(-c3cccc(OC(=O)c4csc(-c5ccncc5)n4)c3)cc2)NC(=O)[C@H](Cc2ccc(-c3ccccc3)cc2)NC(=O)[C@H](CN2CCOCC2)NC(=O)CSC[C@@H](C(=O)NCC(N)=O)NC1=O` [Example 332] ({CH2CO}-[Ala(morpholin-4-yl)][Bip][X84][Sar]PD[dR]VPVRLCG-NH2; thioether N-13): the pIC50 is 5.70 to 6.70.
For `CC[C@H](C)[C@@H]1NC(=O)[C@@H]2CCCN2C(=O)[C@H]([C@@H](C)CC)NC(=O)[C@@H](CCCNC(=N)N)NC(=O)[C@H](CC(=O)O)NC(=O)[C@H](Cc2ccccc2)NC(=O)CN(C)C(=O)[C@H](Cc2ccc(-c3ccc(NC(=O)c4nn(C)c5ccccc45)cc3)cc2)NC(=O)[C@H](Cc2ccc(-c3ccc(C(=O)O)cc3)cc2)NC(=O)[C@H](C(C)(C)C)NC(=O)CSC[C@@H](C(=O)NCC(N)=O)NC(=O)[C@H](CC(C)C)NC(=O)[C@H](Cc2cnc[nH]2)NC1=O` [Example 334] ({CH2CO}-[Tle][Bip(4'-COOH)][X5][Sar]FD[dR]IPIHLCG-NH2; thioether N-13), the pIC50 was more than 7.30.
Consider `CC[C@H](C)[C@@H]1NC(=O)[C@@H]2CCCN2C(=O)[C@H]([C@@H](C)CC)NC(=O)[C@@H](CCCNC(=N)N)NC(=O)[C@H](CC(=O)O)NC(=O)[C@H](Cc2ccccn2)NC(=O)CN(C)C(=O)[C@H](Cc2ccc(-c3ccc(NC(=O)c4nn(C)c5ccccc45)cc3)cc2)NC(=O)[C@H](Cc2ccc(-c3ccccc3)cc2)NC(=O)[C@H](C(C)(C)C)NC(=O)CSC[C@@H](C(=O)NCC(N)=O)NC(=O)[C@H](CC(C)C)NC(=O)[C@H](Cc2cccc(C(N)=O)c2)NC1=O` [Example 335] ({CH2CO}-[Tle][Bip][X5][Sar][2Pal]D[dR]IPI[Phe(3-CONH2)]LCG-NH2; thioether N-13), for which the pIC50 is 6.70 to 7.30.
Consider `CC[C@H](C)[C@@H]1NC(=O)[C@@H](CCCNC(=N)N)NC(=O)[C@H](CC(=O)O)NC(=O)[C@H](Cc2cnc[nH]2)NC(=O)CN(C)C(=O)[C@H](Cc2ccc(-c3ccc(NC(=O)c4nn(C)c5ccccc45)cc3)cc2)NC(=O)[C@H](Cc2ccc(-c3ccc(C(=O)O)cc3)cc2)NC(=O)[C@H](CC2CCCCC2)NC(=O)CSC[C@@H](C(=O)NCC(N)=O)NC(=O)[C@H](CC(C)C)NC(=O)[C@H](Cc2cnc[nH]2)NC(=O)[C@H](C(C)C)NC(=O)[C@@H]2Cc3ccccc3CN2C1=O` [Example 336] ({CH2CO}-[Cha][Bip(4'-COOH)][X5][Sar]HD[dR]I[Tic]VHLCG-NH2; thioether N-13), for which the pIC50 was more than 7.30.
`CC[C@H](C)[C@@H]1NC(=O)[C@@H]2CCN2C(=O)[C@H]([C@@H](C)CC)NC(=O)[C@@H](CCCNC(=N)N)NC(=O)[C@H](CC(=O)O)NC(=O)[C@H](Cc2ccc(O)cc2)NC(=O)CN(C)C(=O)[C@H](Cc2ccc(-c3ccc(NC(=O)c4nn(C)c5ccccc45)cc3)cc2)NC(=O)[C@H](Cc2ccc(-c3ccccc3)cc2)NC(=O)[C@H](C(C)(C)C)NC(=O)CSC[C@@H](C(=O)NCC(N)=O)NC(=O)[C@H](CC(C)C)NC(=O)[C@H](Cc2ccc(O)cc2)NC1=O` [Example 337] ({CH2CO}-[Tle][Bip][X5][Sar]YD[dR]I[Aze]IYLCG-NH2; thioether N-13): the pIC50 is 6.70 to 7.30.
As to `CC(C)C[C@@H]1NC(=O)[C@H](CCCNC(=N)N)NC(=O)[C@H](C(C)C)NC(=O)[C@@H]2CCCN2C(=O)[C@H](C(C)C)NC(=O)[C@@H](CCCNC(=N)N)NC(=O)[C@H](CC(=O)O)NC(=O)[C@@H]2CCCN2C(=O)CN(C)C(=O)[C@H](Cc2ccc(-c3ccc(NC(=O)c4nn(C)c5ccccc45)cc3)cc2)NC(=O)[C@H](Cc2ccc(-c3ccccc3)cc2)NC(=O)[C@H](CN2CCOCC2)NC(=O)CSC[C@@H](C(=O)NCC(N)=O)NC1=O` [Example 338] ({CH2CO}-[Ala(morpholin-4-yl)][Bip][X5][Sar]PD[dR]VPVRLCG-NH2; thioether N-13), the pIC50 is more than 7.30.
On the same count and under the same terms, with `CC(C)C[C@@H]1NC(=O)[C@H](Cc2ccccn2)NC(=O)[C@H](C(C)C)NC(=O)[C@@H]2CCCN2C(=O)[C@H](C(C)C)NC(=O)[C@@H](CCCNC(=N)N)NC(=O)[C@H](CC(=O)O)NC(=O)[C@H](Cc2ccc(O)cc2)NC(=O)CN(C)C(=O)[C@H](Cc2ccc(-c3ccc(NC(=O)c4nn(C)c5ccccc45)cc3)cc2)NC(=O)[C@H](Cc2ccc(-c3ccc(C(=O)O)cc3)cc2)NC(=O)[C@H](CC2CCCCC2)NC(=O)CSC[C@@H](C(=O)NCC(N)=O)NC1=O` [Example 339] ({CH2CO}-[Cha][Bip(4'-COOH)][X5][Sar]YD[dR]VPV[2Pal]LCG-NH2; thioether N-13) the figure was more than 7.30.
For `CC(C)C[C@@H]1NC(=O)[C@H](Cc2ccc(O)cc2)NC(=O)[C@H](C(C)C)NC(=O)[C@@H]2CCCN2C(=O)[C@H](C(C)C)NC(=O)[C@@H](CCCNC(=N)N)NC(=O)[C@H](CC(=O)O)NC(=O)[C@@H]2CCCN2C(=O)CN(C)C(=O)[C@H](Cc2ccc(-c3ccc(NC(=O)c4nn(C)c5ccccc45)cc3)cc2)NC(=O)[C@H](Cc2ccc(-c3ccc(C(=O)O)cc3)cc2)NC(=O)[C@H](CC2CCCCC2)NC(=O)CSC[C@@H](C(=O)NCC(N)=O)NC1=O` [Example 340] ({CH2CO}-[Cha][Bip(4'-COOH)][X5][Sar]PD[dR]VPVYLCG-NH2; thioether N-13), the negative logarithm of the IC50 (pIC50) was more than 7.30.
The same measure, in the same setting: next, `CC[C@H](C)[C@@H]1NC(=O)[C@@H](CCCNC(=N)N)NC(=O)[C@H](CC(=O)O)NC(=O)[C@H](Cc2cnc[nH]2)NC(=O)CN(C)C(=O)[C@H](Cc2ccc(-c3ccc(NC(=O)c4nn(C)c5ccccc45)cc3)cc2)NC(=O)[C@H](Cc2ccc(-c3ccccc3)cc2)NC(=O)[C@H](CC2CCCCC2)NC(=O)CSC[C@@H](C(=O)NCC(N)=O)NC(=O)[C@H](CC(C)C)NC(=O)[C@H](Cc2cnc[nH]2)NC(=O)[C@H](C(C)C)NC(=O)[C@@H]2CCCN2C1=O` [Example 341] ({CH2CO}-[Cha][Bip][X5][Sar]HD[dR]IPVHLCG-NH2; thioether N-13): more than 7.30.
